Source: patent publication US7468384B2, “Microbicidal composition” (Rohm and Haas Company, priority 2004, dated 2008)

Tests used:
Assay type in all cases: cell-based
[1] = tested on: Aspergillus niger (A. niger—ATCC 16404); test: Synergy test, microtiter plate high resolution MIC assay, mold; set-up: key to SI (calculated synergy index) / SI (synergy index): SI = Qa/QA + Qb/QB (mixture vs. alone end-point concentrations); conditions: A. niger 16404, PDB
Source text: (§1) One measure of synergism is the industrially accepted method described by Kull, F. C.; Eisman, P. C.; Sylwestrowicz, H. D. and Mayer, R. L., in Applied Microbiology 9:538-541 (1961), using the ratio determined by the formula: Qa/QA+Qb/QB=Synergy Index (“SI”) wherein: • QA=concentration of compound A (first component) in ppm, acting alone, which produced an end point (MIC of Compound A). • Qa=concentration of compound A in ppm, in the mixture, which produced an end point. • QB=concentration of compound B (second component) in ppm, acting alone, which produced an end point (MIC of Compound B). • Qb=concentration of compound B in ppm, in the mixture, which produced an end point.
(§2) When the sum of Qa/QA and Qb/QB is greater than one, antagonism is indicated. […] The lower the SI, the greater the synergy shown by that particular mixture. The minimum inhibitory concentration (MIC) of a microbicide is the lowest concentration tested under a specific set of conditions that prevents the growth of added microorganisms.
(§3) Synergy tests were conducted using standard microtiter plate assays with media designed for optimal growth of the test microorganism. Soybean Casein Digest Broth (Tryptic Soy Broth, TSB medium) or minimal salt medium supplemented with 0.2% glucose and 0.1% yeast extract (M9GY medium) was used for testing bacteria; Potato Dextrose Broth (PDB medium) was used for testing yeast and mold. In this method, a wide range of combinations of microbicides was tested by conducting high resolution MIC assays in the presence of various concentrations of MI. High resolution MICs were determined by adding varying amounts of microbicide to one column of a microtitre plate and doing subsequent ten-fold dilutions using an automated liquid handling system to obtain a series of endpoints ranging from 2 ppm to 10,000 ppm active ingredient.
(§4) For MI combinations, the synergy of the combinations of the present invention was determined against two bacteria, Escherichia coli (E. coli—ATCC #8739) or Pseudomonas aeruginosa (P. aeruginosa—ATCC #15442), a yeast, Candida albicans (C. albicans—ATCC 10231), and a mold, Aspergillus niger (A. niger—ATCC 16404). The bacteria were used at a concentration of about 5×10^6 bacteria per mL and the yeast and mold at 5×10^5 fungi per mL. These microorganisms are representative of natural contaminants in many consumer and industrial applications. […] (bacteria).
(§5) For BIT combinations, the synergy of the combinations of the present invention was determined against a bacterium, Pseudomonas aeruginosa (P. aeruginosa—ATCC #15442), a yeast, Candida albicans (C. albicans—ATCC 10231), and a mold, Aspergillus niger (A. niger—ATCC 16404). The bacteria were used at a concentration of about 5×10^6 bacteria per mL and the yeast and mold at 5×10^5 fungi per mL. These microorganisms are representative of natural contaminants in many consumer and industrial applications. […] (yeast and mold) or 30° C. (bacteria).

[2] = tested on: Pseudomonas aeruginosa (P. aeruginosa—ATCC #15442); test: Synergy test, microtiter plate high resolution MIC assay, bacterium; set-up: key to SI (calculated synergy index) / SI (synergy index): SI = Qa/QA + Qb/QB (mixture vs. alone end-point concentrations); conditions: for SI (calculated synergy index) / Qb: end-point activity (MIC) of second component in the mixture (alone, QB, where Qa = 0): Table 6; for Qb: end-point activity (MIC) of second component in the mixture (alone, QB, where Qa = 0): B = Cocamidopropyl PG-dimonium chloride phosphate
Source text: as §1, §2, §3, §4, §5

[3] = tested on: S. aureus 6538; test: as above; conditions: S. aureus 6538, TSB
Source text: as §1, §2, §3

[4] = tested on: Candida albicans (C. albicans—ATCC 10231); test: Synergy test, microtiter plate high resolution MIC assay, yeast; conditions: C. albicans 10231, PDB, 24 hours
Source text: as §1, §2, §3, §4, §5

[5] = tested on: Escherichia coli (E. coli—ATCC #8739); test: Synergy test, microtiter plate high resolution MIC assay, bacterium; conditions: E. coli 8739, M9GY, 24 hours
Source text: as §1, §2
as §3, with “In this method, a wide range of combinations of microbicides was tested by conducting high resolution MIC assays in the presence of various concentrations of MI.” left out
as §4

[6] = P. aeruginosa 15442, M9GY, 72 hours
[7] = P. aeruginosa 15442, TSB, 48 hours

Which results are given for “Cocamidopropyl PG-dimonium chloride phosphate”?
SI (calculated synergy index) ([1]; Table 6, 4 days): 1.00; Qb: end-point activity (MIC) of second component in the mixture (alone, QB, where Qa = 0) ([1]; Table 6, 4 days, B = Cocamidopropyl PG-dimonium chloride phosphate): 1000 ppm; SI (synergy index) ([1]; Table 22, 1 week): 1.00; Qb (second component at end point, MIC) ([1]; Table 22, Cocamidopropyl PG-dimonium chloride phosphate with BIT, 1 week, alone where Qa = 0): 3000 ppm; SI (calculated synergy index) [2, 6]: 1.00; Qb: end-point activity (MIC) of second component in the mixture (alone, QB, where Qa = 0) [2, 6]: 30 ppm; SI (calculated synergy index) [2, 7]: 1.00; Qb: end-point activity (MIC) of second component in the mixture (alone, QB, where Qa = 0) [2, 7]: 1000 ppm; Qb (second component at end point, MIC) ([2]; Table 22, Cocamidopropyl PG-dimonium chloride phosphate with BIT, P. aeruginosa 15442, M9GY, 72 hours, alone where Qa = 0): 40 ppm; SI (synergy index) ([2]; Table 22, P. aeruginosa 15442, M9GY, 72 hours): 1.00; SI (calculated synergy index) ([3]; Table 6, 24 hours): 1.00; Qb: end-point activity (MIC) of second component in the mixture (alone, QB, where Qa = 0) ([3]; Table 6, 24 hours, B = Cocamidopropyl PG-dimonium chloride phosphate): 30 ppm; SI (calculated synergy index) ([4]; Table 6): 1.00; Qb: end-point activity (MIC) of second component in the mixture (alone, QB, where Qa = 0) ([4]; Table 6, B = Cocamidopropyl PG-dimonium chloride phosphate): 100 ppm

For OCC(O)COc1ccc(Cl)cc1 (stereo not drawn) [Chlorphenesin], which “MIC of component acting alone (QA / QB)” value ([1]; 4 days) is on record?
The value was 2000 ppm.

What about the Qb ([1]; chlorphenesin concentration giving end point (MIC), alone or mixed with BIT, 1 week) of the same compound?
The Qb was 2000 ppm.

What about the SI ([1]; synergy index BIT + chlorphenesin, 1 week) of the same compound?
Its SI is 1.00.

What about the “MIC of component acting alone (QA / QB)” value ([2]; P. aeruginosa 15442, M9GY, 48 hours) of the same compound?
The value was 4000 ppm.

And the “MIC of component acting alone (QA / QB)” value [2, 7]?
The value was 8000 ppm.

And the Qb ([2]; chlorphenesin concentration giving end point (MIC), alone or mixed with BIT, P. aeruginosa 15442, M9GY, 72 hours)?
The Qb was 8000 ppm.

What about the SI ([2]; synergy index BIT + chlorphenesin, P. aeruginosa 15442, M9GY, 72 hours) of the same compound?
Its SI is 1.00.

And the “MIC of component acting alone (QA / QB)” value ([3]; 48 hours)?
Its value is 5000 ppm.

What about the “MIC of component acting alone (QA / QB)” value [4] of the same compound?
The value was 2000 ppm.

What about the “MIC of component acting alone (QA / QB)” value [5] of the same compound?
Its value is 2000 ppm.
